The target of data set [1] is MurA (UDP-N-acetylglucosamine-enolpyruvyl-transferase) (Escherichia coli, UniProt P0A749). To be noted: cited from earlier work.
Data set [2] concerns gram-negative and gram-positive bacteria including methicillin-resistant staphylococci. To be noted: cited from earlier work.
Data set [3] concerns vancomycin-resistant Staphylococcus aureus (VRS). Conditions: cited from earlier work.
In data set [4] the test system is vancomycin-resistant enterococci. Conditions: cited from earlier work.
Data set [5] relates to ESBL. Conditions: cited from earlier work.
Data set [6] in a line: Hygroscopic properties of fosfomycin salts. Conditions: salt alone, atmospheric humidity. The format is physicochemical. An excerpt:
Both salts attract atmospheric humidity and deliquesce in the process. Experiments have shown that these salts, in the dry state, can be integrated into cement powders of polymethylmethacrylate bone cements. However, said cement powders also attract atmospheric humidity during storage on air, upon which the antibiotic particles deliquesce. This can cause the cement powder to clump. For this reason, both of these fosfomycin salts are unsuitable or poorly suitable for industrial production of antibiotic polymethylmethacrylate bone cement powders.

Chain of MurA (UDP-N-acetylglucosamine-enolpyruvyl-transferase) (P0A749 whole entry): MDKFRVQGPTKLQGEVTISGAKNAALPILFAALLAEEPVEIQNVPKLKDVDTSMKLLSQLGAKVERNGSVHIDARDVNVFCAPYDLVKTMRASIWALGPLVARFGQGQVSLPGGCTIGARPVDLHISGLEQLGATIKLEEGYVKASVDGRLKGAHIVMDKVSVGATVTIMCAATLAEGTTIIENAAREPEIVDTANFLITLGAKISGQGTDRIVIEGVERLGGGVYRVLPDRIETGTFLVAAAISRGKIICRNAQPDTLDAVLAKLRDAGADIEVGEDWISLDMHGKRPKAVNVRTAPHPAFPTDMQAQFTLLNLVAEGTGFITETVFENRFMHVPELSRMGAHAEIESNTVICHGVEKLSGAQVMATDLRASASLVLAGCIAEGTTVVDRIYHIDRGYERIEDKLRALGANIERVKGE

Consider `C[C@@H]1O[C@@H]1P(=O)(O)O` [Fosfomycin, (2R,3S)-3-methyloxiranphosphonic acid], for which the “Inhibition of MurA” value in data set [1] was “inhibits”. Moreover, the Antibacterial activity result in data set [2] (gram-negative and gram-positive bacteria including methicillin-resistant staphylococci) is “active”. In addition, the “Mode of antibacterial action” value in data set [2] (in susceptible bacteria) was “bactericidal”. The Antibacterial efficacy result in data set [3], in data set [4] and in data set [5] was “efficacious” throughout.

Turning to `C[C@@H]1O[C@@H]1P(=O)([O-])[O-].[Na+].[Na+]` [sodium salt, disodium salt of fosfomycin], the Hygroscopic properties result in data set [6] is listed as “extraordinarily hygroscopic”.

As for `C[C@@H]1O[C@@H]1P(=O)([O-])[O-].O.[Ca+2]` [calcium salt of fosfomycin, monohydrate of the calcium salt of fosfomycin], in data set [6], the Hygroscopic properties entry was “extraordinarily hygroscopic”.

With `C[C@@H]1O[C@@H]1P(=O)(O)O.NC(CO)(CO)CO` [trometamol-fosfomycin], the Hygroscopic properties entry in data set [6] is “somewhat hygroscopic”.

(Values after patent US9415134B2, “Fosfomycin preparation, a method for producing the preparation, and a polymethylmethacrylate bone cement powder containing the preparation” (HERAEUS MEDICAL GMBH, priority 2014, dated 2016).)
